According to patent publication US6489312B1, “Pharmaceutical formulations comprising aminoalkyl phosphorothioates” (MedImmune Oncology, Inc., priority 1999, dated 2002):

What was measured:
[1] = test system: radiation-induced mucositis; experiment: Radiation-induced mucositis in the lip of irradiated mice, total mucositis score (erythema + edema, Parkins scoring); assay type: in vivo, C57BL/6 female mice; parameters: key to Total Mucositis Score After 11 days: combined erythema + edema score (Parkins), maximum 7; details: for Score (total mucositis score): amifostine 50 mg/ml, 200 mg/Kg s.c. 30 minutes before 16.5 Gy irradiation, maximum score 7
From the text: One of the major limiting acute toxicities associated with radiotherapy is radiation-induced mucositis. The ability to reduce the duration and severity of acute mucosal reactions is of particular importance in the radiotherapy and/or chemotherapy of head and neck cancer. Therefore, the radioprotective effects of amifostine were examined in an experimental model of mucositis. In particular, the study compared the radioprotective effects of amifostine by subcutaneous (s.c.) and intraperitoneal (i.p.) administration.
(§1) C57BL/6 female mice of 8-10 weeks old were used and fed with semi liquid food. The mice were randomly divided into treatment groups of five mice each. The treatment groups were, for example,
(§2) Unanesthetized mice were maintained in supine position and irradiated exclusively on the tip of their mouth. […] Irradiation was performed with a RT 250 Philips apparatus delivering 1.98 Gy per min. (200 Kv, 20 mA, filter of 0.2 mm de Cu). During irradiation, a constant normobaric air renewal was maintained. The effects of amifostine were evaluated using a single dose of 16.5 Gy.
(§3) Amifostine was dissolved in appropriate diluent to achieve a final concentration of 50 mg/ml immediately before injections. Amifostine was dissolved in 0.075% sodium deoxycholate to achieve a final concentration of 50 mg/ml. Amifostine was dissolved in a mixture of 2% EDTA and 2% sorbitol to achieve a final concentration of 50 mg/ml. Amifostine was dissolved in 0.2% EDTA to achieve a final concentration of 50 mg/ml. Subcutaneous injections (200 mg/Kg) were conducted 30 minutes before irradiation. Where a control group was used, a first control group was injected with the saline solution and subsequently irradiated, and a second control group was injected with the saline solution, but was not irradiated.
(§4) The effects of irradiation on lip mucosa were evaluated using the scoring system described by Parkins et al. (1983, Radiother. Oncol. 1:159-165). Body weight of the treated mice were scored periodically after treatment. Reduction in body weight was used as an objective indication of the severity of mucositis induced by irradiation, presumably resulting from the inability of the animals to eat. In this model, the acute reactions peaked on day 10 to 11 after irradiation.
Other symptoms of mucositis such as mucosal erythema and edema were also recorded. These symptoms developed more slowly than weight loss following irradiation. Mucosal erythema and edema were scored separately, and could be analyzed as separate scores or as a combined score yielding a maximum score of 7. Mouse lip mucosal erythema was scored according to Table 1.
Mucosal edema (swelling) of the lips was scored according to table 2.
(§5) These examples describe pharmaceutical formulations of the invention comprising amifostine in combination with surfactants and/or hydrotropes and/or chelating agents. The pharmaceutical formulations were administered, and the effects of irradiation on lip mucosa evaluated using the methods described in the first Example above.

[2] = Body weight of irradiated mice as objective indicator of mucositis; assay type: in vivo, C57BL/6 female mice; details: for Weight: amifostine 50 mg/ml, 200 mg/Kg s.c. 30 minutes before 16.5 Gy irradiation
Method: as §1, §2, §3, §4, §5

Compound	Total Mucositis Score After 11 days ([1]; after 11 days, irradiated mice, methods of Example 1)	% Weight Change After 6 Days ([2]; after 6 days, irradiated mice, methods of Example 1)	Score (total mucositis score) ([1]; Day 0)	Score (total mucositis score) ([1]; Day 6)	Score (total mucositis score) ([1]; Day 10)	Score (total mucositis score) ([1]; Day 11)	Score (total mucositis score) ([1]; Day 12)	Score (total mucositis score) ([1]; Day 18)	Score (total mucositis score) ([1]; Day 28)	Weight ([2]; Day 0)	Weight ([2]; Day 6)	Weight ([2]; Day 10)	Weight ([2]; Day 11)	Weight ([2]; Day 12)	Weight ([2]; Day 18)	Weight ([2]; Day 28)	Effect on body weight reduction after irradiation (in words) ([2]; s.c. administration before irradiation, compared with other groups)
NCCCNCCS [WR-1065, S-2-(3-aminopropylamino)ethanethiol]	5.1	−8.7%															
NCCCNCCSP(=O)(O)O [Amifostine, S-2-(3-aminopropylamino)ethyl dihydrogen phosphorothioate]			0.0	0.5	1.7	1.8	1.3	0.4	0.0	16.4 g	15.8 g	17.4 g	17.8 g	17.6 g	18.4 g	19.5 g	Less severe reductions in body weight
